A value given as a limit tells only on which side of the number the result lay.

The target in assay [1] is LSD1/CoREST complex (Homo sapiens) (UniProt O60341+Q9UKL0). In words: Potency index, ratio of trans-benzyl 1-(4-(2-aminocyclopropyl)phenylamino)-1-oxo-3-phenylpropan-2-ylcarbamate hydrochloride IC50 to compound IC50 for human recombinant LSD1/CoREST protein expressed in Escherichia coli.
Assay [2] addresses Lysine-specific histone demethylase 1A (Homo sapiens) (UniProt O60341). As to the kind of experiment: Inhibition of LSD1 in human NB4 cells assessed as induction of ITGAM mRNA expression at IC50 after 24 hrs by quantitative RT-PCR analysis relative to vehicle-treated control. The assay is classed as cell-based. The following applies: NB-4.
The target is the same in assay [3]. In words: Inhibition of LSD1 in human NB4 cells assessed as induction of GFI-1b mRNA expression at IC50 after 24 hrs by quantitative RT-PCR analysis relative to vehicle-treated control. The assay is classed as cell-based. As to conditions: NB-4.
A further assay addresses LSD1/CoREST complex (Homo sapiens, UniProt O60341). In words: Inhibition of human recombinant LSD1/CoREST protein expressed in Escherichia coli using monomethylated H3-K4 peptide (21 amino acids) as substrate preincubated for 15 mins followed by substrate addition measured for 12 mins by HRP-coupled Ultrared detection system-based fluorescence analysis.
Assay [4] concerns the target T1, Amine oxidase [flavin-containing] A (Homo sapiens, UniProt P21397).
T1 sequence (P21397 whole entry): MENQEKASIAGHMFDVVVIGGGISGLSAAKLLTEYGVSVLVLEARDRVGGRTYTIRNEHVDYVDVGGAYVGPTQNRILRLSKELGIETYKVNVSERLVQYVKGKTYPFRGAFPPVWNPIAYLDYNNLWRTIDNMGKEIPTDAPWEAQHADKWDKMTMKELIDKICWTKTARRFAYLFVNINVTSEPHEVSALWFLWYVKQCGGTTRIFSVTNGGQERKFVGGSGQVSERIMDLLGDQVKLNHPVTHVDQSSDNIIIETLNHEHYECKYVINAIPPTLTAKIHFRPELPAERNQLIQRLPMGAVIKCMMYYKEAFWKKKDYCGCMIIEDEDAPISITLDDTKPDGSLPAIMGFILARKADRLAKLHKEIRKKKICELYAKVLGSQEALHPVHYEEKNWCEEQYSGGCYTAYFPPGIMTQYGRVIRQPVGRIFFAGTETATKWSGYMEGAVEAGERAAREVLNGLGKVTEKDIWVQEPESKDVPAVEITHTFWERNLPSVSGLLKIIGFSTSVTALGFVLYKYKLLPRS
In words: Inhibition of human recombinant MAO A expressed in Pichia pastoris using kynuramine as substrate preincubated for 15 mins followed by substrate addition by horseradish peroxidase coupled-spectrofluorimetric assay.

The target of assay [5] is T2, Amine oxidase [flavin-containing] B (Homo sapiens, UniProt P27338).
T2 sequence (P27338 whole entry): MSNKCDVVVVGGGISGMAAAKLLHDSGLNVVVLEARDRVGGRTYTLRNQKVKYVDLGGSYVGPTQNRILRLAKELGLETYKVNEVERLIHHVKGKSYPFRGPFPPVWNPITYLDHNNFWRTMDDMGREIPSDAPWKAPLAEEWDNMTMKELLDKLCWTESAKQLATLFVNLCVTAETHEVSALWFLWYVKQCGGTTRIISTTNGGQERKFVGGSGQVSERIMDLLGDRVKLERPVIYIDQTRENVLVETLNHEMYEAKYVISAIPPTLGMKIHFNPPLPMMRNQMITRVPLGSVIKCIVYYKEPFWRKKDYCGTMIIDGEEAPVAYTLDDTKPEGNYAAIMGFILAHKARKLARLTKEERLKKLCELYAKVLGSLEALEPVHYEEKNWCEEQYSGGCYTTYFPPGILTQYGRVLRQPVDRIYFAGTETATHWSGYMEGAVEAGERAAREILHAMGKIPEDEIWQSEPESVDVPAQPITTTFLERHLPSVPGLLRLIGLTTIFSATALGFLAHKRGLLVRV
As to the kind of experiment: Inhibition of human recombinant MAO B expressed in Pichia pastoris using benzylamine as substrate preincubated for 15 mins followed by substrate addition by horseradish peroxidase coupled-spectrofluorimetric assay.

The species entered for the next assay is Homo sapiens. In words: Selectivity ratio of IC50 for human recombinant MAO A to IC50 for human recombinant LSD1/CoREST.
Assay [6] can be described thus: Cytotoxicity against human NB4 cells assessed as growth inhibition after 72 hrs by CellTiter-Fluor Cell Viability assay. As to conditions: NB-4, 72 h. Type of assay: functional, cell-based.
For assay [7], the system named is MV4-11. As to the kind of experiment: Cytotoxicity against human MV4-11 cells assessed as growth inhibition after 72 hrs by CellTiter-Fluor Cell Viability assay. Type of assay: functional, cell-based. As to conditions: MV4-11, 72 h.
The test system of assay [8] is MV4-11. As to the kind of experiment: Potency index, ratio of trans-benzyl 1-(4-(2-aminocyclopropyl)phenylamino)-1-oxo-3-phenylpropan-2-ylcarbamate hydrochloride IC50 to compound IC50 for human MV4-11 cells. Type of assay: functional.
Another assay has as its system NB-4. As to the kind of experiment: Potency index, ratio of trans-benzyl 1-(4-(2-aminocyclopropyl)phenylamino)-1-oxo-3-phenylpropan-2-ylcarbamate hydrochloride IC50 to compound IC50 for human NB4 cells. Type of assay: functional.
Assay [9] can be described thus: Cytotoxicity against human NB4 cells assessed as growth inhibition at 100 uM after 72 hrs by CellTiter-Fluor Cell Viability assay. The assay is classed as functional. The following applies: NB-4, 72 h.

Sequence of LSD1/CoREST complex (Homo sapiens) (Q9UKL0 whole entry, looked up, other chains not shown): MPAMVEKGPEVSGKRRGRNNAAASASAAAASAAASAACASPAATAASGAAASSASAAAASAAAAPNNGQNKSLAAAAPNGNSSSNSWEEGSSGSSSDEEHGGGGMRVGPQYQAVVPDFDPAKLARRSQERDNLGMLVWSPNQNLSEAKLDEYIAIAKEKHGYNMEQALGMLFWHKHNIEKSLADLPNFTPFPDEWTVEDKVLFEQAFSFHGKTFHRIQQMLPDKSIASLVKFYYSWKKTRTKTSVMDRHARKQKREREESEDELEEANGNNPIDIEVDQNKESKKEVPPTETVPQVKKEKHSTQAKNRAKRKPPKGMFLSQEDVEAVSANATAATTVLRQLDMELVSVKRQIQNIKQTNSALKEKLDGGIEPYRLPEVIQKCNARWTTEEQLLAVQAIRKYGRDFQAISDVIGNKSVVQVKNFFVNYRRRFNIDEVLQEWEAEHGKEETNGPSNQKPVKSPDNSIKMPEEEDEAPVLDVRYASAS

Regarding `N[C@@H]1C[C@H]1c1ccc(NC(=O)c2cc3ccccc3[nH]2)cc1`, the Ratio IC50 in assay [1] came to 2. For the same compound, the fold change (FC) is under 4 in assay [2] and under 6 in [3]. For the same compound, the half-maximal inhibitory concentration (IC50) – broadly, the concentration that inhibits the measured activity by half – at LSD1/CoREST complex turned out to be 0.065 µM.
With `N[C@@H]1C[C@H]1c1ccc(NC(=O)c2ccc[nH]2)cc1`, the fold change (FC) in assay [2] is under 4; in [3], under 6. On LSD1/CoREST complex, the IC50 stood at 0.163 µM.
For the compound `N[C@@H]1C[C@H]1c1ccc(NC(=O)c2ccn(C(=O)OCc3ccccc3)c2)cc1`, the IC50 in assay [4] is 0.11 µM; in [5], 3.9 µM; in [6], 22.3 µM; in the assay on MV4-11 [7], 15.2 µM; on LSD1/CoREST complex, 0.05 µM. The Ratio IC50 in assay [1] was 3; in the assay filed under Homo sapiens it was under 8. In addition, the fold change (FC) in [2] is under 4; in [3], under 6.
Regarding `Cl.N[C@@H]1C[C@H]1c1ccc(NC(=O)c2cc3ccccc3n2C(=O)OCc2ccccc2)cc1` (relative stereo), the IC50 is 0.16 µM in assay [4]; over 60 µM in assay [5]; 6.5 µM in [6]; 5.9 µM in the assay on MV4-11 [7]; 0.04 µM at LSD1/CoREST complex. Further, the Ratio IC50 is 3.7 in assay [1], 2 in the assay with MV4-11 [8], under 8 in the assay listed under Homo sapiens and 2 in the assay with NB-4. Besides, the fold change (FC) is under 4 in [2] and under 6 in assay [3].
Take `N[C@@H]1C[C@H]1c1ccc(NC(=O)c2cc3ccccc3n2CC(=O)Nc2ccccc2)cc1` (relative stereo): the Ratio IC50 in [1] worked out at 2. Also, the fold change (FC) in assay [2] is under 4; in assay [3], under 6. Further, the IC50 at LSD1/CoREST complex stood at 0.087 µM.
Take `N[C@@H]1C[C@H]1c1ccc(NC(=O)c2cccn2CC(=O)Nc2ccccc2)cc1` (relative stereo): the figures for the fold change (FC) in assay [2] and in assay [3] were under 4 and under 6, respectively. In addition, the IC50 on LSD1/CoREST complex came out at 0.125 µM.
For `N[C@@H]1C[C@H]1c1ccc(NC(=O)CNC(=O)OCc2ccccc2)cc1` (relative stereo), the IC50 on LSD1/CoREST complex came to 0.304 µM.
Regarding `N[C@@H]1C[C@H]1c1ccc(NC(=O)c2cccn2C(=O)OCc2ccccc2)cc1` (relative stereo), the IC50 in assay [4] was determined as 0.26 µM; in assay [5] it was 75.8 µM; with MV4-11 [7] it was 6.8 µM; on LSD1/CoREST complex, 0.032 µM. For the same compound, the Ratio IC50 is 5 in assay [1] and under 8 in the assay filed under Homo sapiens. The inhibition (usually how much of the control response was suppressed) at 100 µM in assay [9] came to 56%. The fold change (FC) was under 4 in [2] and under 6 in assay [3].
`N[C@@H]1C[C@H]1c1ccc(NC(=O)c2cc3ccccc3n2CC(=O)NCc2ccccc2)cc1` (relative stereo): the IC50 at LSD1/CoREST complex was 0.308 µM.
On to `N[C@@H]1C[C@H]1c1ccc(NC(=O)c2cc3ccccc3n2CC(=O)c2ccccc2)cc1` (relative stereo), for which, on LSD1/CoREST complex, the IC50 was 0.853 µM.
Take `Cl.N[C@@H]1C[C@H]1c1ccc(NC(=O)c2cn(C(=O)OCc3ccccc3)c3ccccc23)cc1` (relative stereo): the IC50 in assay [4] was 0.46 µM; in assay [5], over 70 µM; in assay [6], 9.3 µM; in the assay with MV4-11 [7], 2.5 µM; at LSD1/CoREST complex it was 0.086 µM. In addition, the Ratio IC50 in assay [1] was 1.7; in the assay with MV4-11 [8], 2; in the assay filed under Homo sapiens, under 8; in the assay with NB-4 it was 2. Besides, the figures for the fold change (FC) in [2] and in assay [3] were under 4 and under 6, respectively.
For the compound `N[C@@H]1C[C@H]1c1ccc(NC(=O)c2cccn2CC(=O)NCc2ccccc2)cc1` (relative stereo), the fold change (FC) in [2] is under 4; in assay [3], under 6. Also, at LSD1/CoREST complex, the IC50 is 0.155 µM.
Regarding `N[C@@H]1C[C@H]1c1ccc(NC(=O)C2CCCN2C(=O)OCc2ccccc2)cc1` (relative stereo), the Ratio IC50 in [1] is 2. Besides, on LSD1/CoREST complex, the IC50 amounted to 0.061 µM.
With `N[C@@H]1C[C@H]1c1ccc(NC(=O)C(Cc2ccccc2)NC(=O)OCc2ccccc2)cc1` (relative stereo), the IC50 stood at 17.4 µM in [6] and 10.2 µM with MV4-11 [7].
Take `N[C@@H]1C[C@H]1c1ccc(NC(=O)c2cccn2CC(=O)c2ccccc2)cc1` (relative stereo): at LSD1/CoREST complex, the IC50 came out at 1.32 µM.

Source of the values: ChEMBL document CHEMBL3734732, “Pyrrole- and indole-containing tranylcypromine derivatives as novel lysine-specific demethylase 1 inhibitors active on cancer cells” (Medchemcomm, 2015).
